# System: T1, BaAXE (Gene_id_40363)
# T1 construct: full-length 654 bp PCR product (about 218 residues), pDEST42, C-terminal 6xHis, E. coli BL21(DE3), 27 kDa by SDS-PAGE; forward primer CACCATGAAACATGACCAC encodes N-terminus MKHDH
# Test: spectrophotometric 4-nitrophenol release at […] nm, nonlinear Michaelis-Menten fit
# Type: biochemical
# Settings: pH 8, 0.1-2 mM substrate; temperature not told for kinetics (standard assay 40 °C, 50 mM sodium phosphate, 150 mM NaCl, 0.01% Triton X-100)
smiles,measurement,value
"CC(=O)Oc1ccc([N+](=O)[O-])cc1 [4-NPA, 4-nitrophenyl acetate]",Km,430 µM

# Source: publication PMC9104356, “Characterisation of a Novel Acetyl Xylan Esterase (BaAXE) Screened from the Gut Microbiota of the Common Black Slug (Arion ater)” (Molecules, 2022)
